# Columns and labels:
# [1] = target: hemolysin alpha from Staphylococcus aureus (Staphylococcus aureus, UniProt P09616); assay: cell-based
# [2] = target: S. aureus Alpha hemolysin (Staphylococcus aureus, UniProt P09616); assay: cell-based
# Sequence of S. aureus Alpha hemolysin (P09616 27-319 limits assumed): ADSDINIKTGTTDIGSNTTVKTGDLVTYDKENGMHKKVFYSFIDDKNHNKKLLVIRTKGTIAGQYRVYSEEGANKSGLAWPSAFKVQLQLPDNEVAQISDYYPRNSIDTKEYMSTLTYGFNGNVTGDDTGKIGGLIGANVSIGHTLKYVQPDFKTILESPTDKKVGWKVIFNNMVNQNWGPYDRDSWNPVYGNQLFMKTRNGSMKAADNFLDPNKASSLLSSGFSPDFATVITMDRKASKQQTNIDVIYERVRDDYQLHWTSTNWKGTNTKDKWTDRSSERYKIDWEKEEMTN
# Sequence of hemolysin alpha from Staphylococcus aureus (P09616 27-319 limits assumed): as above
Structure (SMILES),EC50 [1],EC50 ([2]; A549-LDH Assay activity),IC50 [1],EC50 ([2]; LDH Assay EC50)
"Cc1cc2[nH]c(=O)c(=O)[nH]c2cc1S(=O)(=O)Nc1ccc(-c2cccc(S(=O)(=O)N(C)C)c2)c(Cl)c1 [Compound 335, N-[3-chloro-4-[3-(dimethylsulfamoyl)phenyl]phenyl]-7-methyl-2,3-dioxo-1,4-dihydroquinoxaline-6-sulfonamide]",100 to 1000 nM,1000 to 6000 nM,,
"Cc1cc2[nH]c(=O)c(=O)[nH]c2cc1S(=O)(=O)Nc1ccc(-c2ccc3c(c2)NC(=O)CO3)c(Cl)c1 [Compound 355, N-[3-chloro-4-(3-oxo-4H-1,4-benzoxazin-6-yl)phenyl]-7-methyl-2,3-dioxo-1,4-dihydroquinoxaline-6-sulfonamide]",< 30 nM,< 30 nM,,
"CCc1cc2[nH]c(=O)c(=O)[nH]c2cc1S(=O)(=O)Nc1ccc(Br)c(Cl)c1 [Compound 149, N-(4-bromo-3-chlorophenyl)-7-ethyl-2,3-dioxo-1,2,3,4-tetrahydroquinoxaline-6-sulfonamide]",,100 to 1000 nM,100 to 1000 nM,
"Cc1cc2[nH]c(=O)c(=O)[nH]c2cc1S(=O)(=O)Nc1ccc(-n2ccnc2)cc1 [Compound 292, N-(4-imidazol-1-ylphenyl)-7-methyl-2,3-dioxo-1,4-dihydroquinoxaline-6-sulfonamide]",1000 to 3500 nM,1000 to 6000 nM,,
"Cc1cc2[nH]c(=O)c(=O)[nH]c2cc1S(=O)(=O)Nc1cc(C)c(-c2cccs2)c(C)c1 [Compound 58, N-(3,5-dimethyl-4-(thiophen-2-yl)phenyl)-7-methyl-2,3-dioxo-1,2,3,4-tetrahydroquinoxaline-6-sulfonamide]",,1000 to 6000 nM,30 to 100 nM,
Cc1cc(NS(=O)(=O)c2cc3[nH]c(=O)c(=O)[nH]c3cc2C)ccc1Br [drawing 471 (R^2 = CH3)],267 nM,,,91 nM
"O=c1[nH]c2cc(C3CC3)c(S(=O)(=O)Nc3cnc(-c4ccc(F)cc4)c(Cl)c3)cc2[nH]c1=O [Compound 379, N-[5-chloro-6-(4-fluorophenyl)-3-pyridyl]-7-cyclopropyl-2,3-dioxo-1,4-dihydroquinoxaline-6-sulfonamide]",100 to 1000 nM,100 to 1000 nM,,
"Cc1cc2[nH]c(=O)c(=O)[nH]c2cc1S(=O)(=O)Nc1cc(C)c(-c2cc[nH]c2)c(C)c1 [Compound 135, N-(3,5-dimethyl-4-(1H-pyrrol-3-yl)phenyl)-7-methyl-2,3-dioxo-1,2,3,4-tetrahydroquinoxaline-6-sulfonamide]",,100 to 1000 nM,100 to 1000 nM,
"CC(=O)c1cccc(-c2ccc(NS(=O)(=O)c3cc4[nH]c(=O)c(=O)[nH]c4cc3C)cc2Cl)c1 [Compound 249, N-[4-(3-acetylphenyl)-3-chloro-phenyl]-7-methyl-2,3-dioxo-1,4-dihydroquinoxaline-6-sulfonamide]",< 30 nM,100 to 1000 nM,,
"Cc1cc2[nH]c(=O)c(=O)[nH]c2cc1S(=O)(=O)Nc1ccc(-c2cccc(C(F)(F)F)c2)c(Cl)c1 [Compound 316, N-[3-chloro-4-[3-(trifluoromethyl)phenyl]phenyl]-7-methyl-2,3-dioxo-1,4-dihydroquinoxaline-6-sulfonamide]",30 to 100 nM,1000 to 6000 nM,,
"Cc1cccc(-c2ccc(NS(=O)(=O)c3cc4[nH]c(=O)c(=O)[nH]c4cc3C)cc2)c1 [Compound 112, 7-methyl-N-(3′-methyl-[1,1′-biphenyl]-4-yl)-2,3-dioxo-1,2,3,4-tetrahydroquinoxaline-6-sulfonamide]",,100 to 1000 nM,100 to 1000 nM,
"O=c1[nH]c2cc(NCCO)c(S(=O)(=O)Nc3ccc(OC(F)(F)F)cc3)cc2[nH]c1=O [Compound 281, 7-(2-hydroxyethylamino)-2,3-dioxo-N-[4-(trifluoromethoxy)phenyl]-1,4-dihydroquinoxaline-6-sulfonamide]",< 30 nM,< 30 nM,,
"Cc1cc2[nH]c(=O)c(=O)[nH]c2cc1S(=O)(=O)Nc1ccc(-c2cccc(CN)c2)c(Cl)c1 [Compound 342, N-[4-[3-(aminomethyl)phenyl]-3-chloro-phenyl]-7-methyl-2,3-dioxo-1,4-dihydroquinoxaline-6-sulfonamide]",1000 to 3500 nM,100 to 1000 nM,,
